Test system: Rac1
Assay: HA-Rac1 incorporation into vesicular fractions of MCF-7 cells, Western blot
Type: cell-based
Conditions: IL-1β 1 ng/mL for 20 minutes
Description: Buoyant density centrifugation was used for subcellular fractionation and isolation of endosomes containing Nox2 activity. Cells were washed twice with ice-cold PBS and scrapped into a 1.5 mL microfuge tube using the same buffer. The cells were pelleted and resuspended in homogenization buffer (HMB) containing 0.25 M sucrose, 20 mM HEPES pH 7.4, 1 mM EDTA, and an EDTA-free protease inhibitor cocktail. The cells were homogenized using nitrogen cavitation in a cell disruption high-pressure chamber (Parr instruments, Moline, Ill.). The pressure was raised to 650-psi for 5 minutes and released suddenly. The homogenate was centrifuged at 3000×g for 15 minutes to pellet unbroken cells, nuclei, and heavy mitochondria. The heavy mitochondrial supernatant (HMS) was bottom loaded into an iodixanol discontinuous gradient in a 12.5 mL SW41Ti ultracentrifuge tube using a previously described method with modifications (Graham et al., 1994; Xia et al., 1998).
The discontinuous gradient was composed of 1.25 mL HMB without EDTA followed by bottom loading of the following % iodixanol steps sequentially with 1.0 mL 2.5%, 1.0 mL 5%, 1.5 mL 9%, 1.5 mL 14%, 2.5 mL 19%, 1.5 mL 26%, and finally the HMS in 2 mL 32%. Iodixanol concentrations were prepared fresh using a 50% iodixanol working solution (WS) diluted with HMB without EDTA. […]

IL-1β: interleukin used to stimulate MCF-7 cells
HA-Rac1 incorporation into crude vesicular fractions: significantly enhanced

From patent publication US20080261201A1, “Methods and compounds to alter virus infection” (priority 2006, published 2008)
